# Results: patent US8575391B2, “5-substituted-2-phenylamino benzamides as MEK inhibitors” (priority 2004, dated 2013)
# Where two headings read alike, the source gives them in different places.
# Assays:
# physchem = assay type: physicochemical; settings: read-out: Water solubility
# in vitro = in vitro ADME; settings: liver microsomes, read-out: Stability against mouse liver microsome T1/2
# [1] = aqueous buffer, thermodynamic from solid, 50 mM phosphate buffer (pH 6.5), room temperature (20° C.)
# [2] = mouse liver microsome 1 mg protein/mL, 2 mM NADPH, pH 7.4, 37° C.
Structure (SMILES),solubility at 2 h (physchem; [1]) [µM],half-life (in vitro; [2]) [h],"solubility at 2 h (physchem; phosphate buffer, 20 °C, pH 6.5, aqueous buffer, thermodynamic from solid) [µM]","half-life (in vitro; mouse, pH 7.4) [h]","solubility at 2 h (physchem; 50 mM phosphate buffer (pH 6.5), room temperature (20° C.)) [µM]"
"CS(=O)(=O)CCOCc1cc(C(=O)NOCCO)c(Nc2ccc(I)cc2F)c(F)c1F [Compound B-12, 3,4-difluoro-2-(2-fluoro-4-iodo-phenylamino)-N-(2-hydroxy-ethoxy)-5-(2-methanesulfonyl-ethoxymethyl)-benzamide]",159,> 6,–,–,–
"C#Cc1ccc(Nc2c(C(=O)NOCCO)cc(CNOCCO)c(F)c2F)c(F)c1 [Compound C-2, 2-(4-Ethynyl-2-fluoro-phenylamino)-3,4-difluoro-N-(2-hydroxy-ethoxy)-5-[(2-hydroxy-ethoxyamino)-methyl]benzamide]",2910,> 6,–,–,–
"C#Cc1ccc(Nc2c(C(=O)NOCCO)cc(CNOCC(C)(C)O)c(F)c2F)c(F)c1 [Compound C-29, 2-(4-Ethynyl-2-fluoro-phenylamino)-3,4-difluoro-N-(2-hydroxy-ethoxy)5-[(2-hydroxy-2-methyl-propoxyamino)-methyl]-benzamide]",237,> 6,–,–,–
"CNC(=O)CCONCc1cc(C(=O)NOCCO)c(Nc2ccc(I)cc2F)c(F)c1F [Compound C-6, 3,4-Difluoro-2-(2-fluoro-4-iodo-phenylamino)-N-(2-hydroxy-ethoxy)-5-[(2-methylcarbamoyl-ethoxyamino)-methyl]benzamide]",–,–,291,> 6,–
"CCC(=O)NCCONCc1cc(C(=O)NOCCO)c(Nc2ccc(I)cc2F)c(F)c1F [Compound C-34, 3,4-Difluoro-2-(2-fluoro-4-iodo-phenylamino)-N-(2-hydroxy-ethoxy)-5-[(2-propionylamino-ethoxyamino)-methyl]-benzamide]",427,3.97,–,–,–
"O=C(NOCCO)c1ccc(F)c(F)c1Nc1ccc(I)cc1F [P, reference compound]",–,0.133,–,–,–
"CC(=O)NCCONCc1cc(C(=O)NOCCO)c(Nc2ccc(I)cc2F)c(F)c1F [Compound C-7, 5-[(2-Acetylamino-ethoxyamino)-methyl]-3,4-difluoro-2-(2-fluoro-4-iodo-phenylamino)-N-(2-hydroxy-ethoxy)-benzamide]",582,2.13,–,–,–
"O=C(NOCCO)c1cc(CNOCCO)c(F)c(F)c1Nc1ccc(I)cc1F [Compound C-1, 3,4-difluoro-2-(2-fluoro-4-iodo-phenylamino)-N-(2-hydroxy-ethoxy)-5-[(2-hydroxy-ethoxyamino)-methyl]-benzamide]",–,2.15,–,–,606
"O=C(NOCCO)c1cc(CNOCCCO)c(F)c(F)c1Nc1ccc(I)cc1F [Compound C-10, 3,4-difluoro-2-(2-fluoro-4-iodo-phenylamino)-N-(2-hydroxy-ethoxy)-5-[(3-hydroxy-propoxyamino)-methyl]-benzamide]",557,1.9,–,–,–

# The remaining lines, values ahead:
solubility at 2 h (physchem; [1]) [µM],half-life (in vitro; [2]) [h],"solubility at 2 h (physchem; phosphate buffer, 20 °C, pH 6.5, aqueous buffer, thermodynamic from solid) [µM]","half-life (in vitro; mouse, pH 7.4) [h]","solubility at 2 h (physchem; 50 mM phosphate buffer (pH 6.5), room temperature (20° C.)) [µM]",Structure (SMILES)
95,> 6,–,–,–,"C#Cc1ccc(Nc2c(C(=O)NOCCO)cc(CN3OCCC3=O)c(F)c2F)c(F)c1 [Compound G-5, 2-(4-Ethynyl-2-fluoro-phenylamino)-3,4-difluoro-N-(2-hydroxy-ethoxy)-5-(3-oxo-isoxazolidin-2-ylmethyl)-benzamide]"
457,2.82,–,–,–,"CON(C=O)Cc1cc(C(=O)NOCCO)c(Nc2ccc(I)cc2F)c(F)c1F [Compound F-1, 3,4-Difluoro-2-(2-fluoro-4-iodo-phenylamino)-5-[(formyl-methoxy-amino)-methyl]-N-(2-hydroxy-ethoxy)-benzamide]"
39,> 6,–,–,–,"CC1(C)CON(Cc2cc(C(=O)NOCCO)c(Nc3ccc(I)cc3F)c(F)c2F)C1=O [Compound G-3, 5-(4,4-Dimethyl-3-oxo-isoxazolidin-2-ylmethyl)-3,4-difluoro-2-(2-fluoro-4-iodo-phenylamino)-N-(2-hydroxy-ethoxy)-benzamide]"
550,0.683,–,–,–,"C#Cc1ccc(Nc2c(C(=O)NOCCO)cc(CN(OC)C(C)=O)c(F)c2F)c(F)c1 [Compound F-7, 5-[(Acetyl-methoxy-amino)-methyl]-2-(4-ethynyl-2-fluoro-phenylamino)-3,4-difluoro-N-(2-hydroxy-ethoxy)-benzamide]"
